Experimental data published in patent US20020034421A1, “Remediation of contaminates including low bioavailability hydrocarbons” (priority 2000, published 2002).
Converted amounts (≈) assume the structure as drawn. “And” between values parts separate entries of the source, which are not always exact repeats. Equal values may be shown once.

Assays:
[1] = at 20° C.; cited from earlier work
[2] = Crystal solubility at 25° C.; cited from earlier work
[3] = Fenton reaction degradation of PAHs in Quakertown silt loam; settings: for % reduced / degraded by Fenton reaction: ratio 10:1 ([H2O2:FeSO4]=[2.0 g:0.2 g]), 24-h oxidation, model soil
[4] = Logarithm of the octanol: water partition coefficient; cited from earlier work
[5] = Hydrogen peroxide oxidation of PAHs at near neutral pH (modified Fenton's reagent) in Quakertown silt loam
[6] = Fenton reaction degradation of PAHs in MGP soil; settings: FR: Fenton's reagent treatment for 24 hours
Description: Coal tar-contaminated soil was collected from a former manufactured gas plant site in New Jersey. The soil was classified as loamy sand, consisting of 78% sand, 11% silt, and 11% clay.
Fenton's reagent was generated by mixing hydrogen peroxide (30%, w/v) with FeSO4.7H2O in varying ratios to determine the optimum conditions for the degradation of PAHs. The sequence of reagent addition seemed to be important to ensure that the reaction occurred efficiently, as well as to ensure that the reaction could be safely maintained. Desired amounts of ferrous sulfate were added to 10 g of PAHs-spiked soil or 5 g of MGP soil in 20 mL of distilled water containing 0.02% HgCl2. To the soil slurry, hydrogen peroxide was introduced gradually by pipetting (ca. 0.3 g each with 10-min intervals), and the reaction was allowed to occur for 24 h on an orbital platform shaker at room temperature.
The soil slurry used for either biodegradation or Fenton-type reaction, or both, was transferred to a 50-mL Teflon centrifuge tube and centrifuged at 18,600× g for 15 min. After removing the supernatant, 10 mL each of dichloromethane and acetone were added to the soil and the soil-solvent suspension was shaken (200 rpm) for 48 h at 30° C. for the extraction of PAHs. The tube was then centrifuged at 18,600× g for 15 min and the solvent mixture was transferred to a 50-mL test tube. After removing excess water (upper layer; ca. 2 mL) by pipetting, 4 g of anhydrous sodium sulfate were mixed with the PAHs-containing solvent to remove residual water completely from solvent. […] The extract was then concentrated to 1 to 2 mL using an evaporator (Büchi Rotavapor; Buchler Instruments Inc., Fort Lee, N.J.) for further analysis.
The extract was passed through a 0.45-μm PTFE syringe filter to remove any particulates present and analyzed by a gas chromatograph (GC) equipped with a flame ionization detector (Varian Star 3500; Varian Chromatograph Systems, Walnut, Calif.). The GC was installed with a Rtx-5 silica column crossbonded with 5% diphenyl and 95% dimethylpolysiloxane (30 m×0.53 mm inner diameter; Restek Corporation, Bellefonte, Pa.). The oven temperature was programmed at 40° C. for 6 min, followed by a linear increase of 10° C. per minute to 300° C., and then the temperature was held for 15 min. Injector and detector temperatures were maintained at 300° C. Two microliters of the extract were injected and nitrogen was used as a carrier gas.

[7] = Hydrogen Peroxide (2g), 100 mg Ferrous Sulfate, Quakertown silt loam
[8] = Hydrogen Peroxide (2g), 200 mg Ferrous Sulfate, Data from TABLE 3
[9] = Hydrogen Peroxide (2g), No FeSO4, Quakertown silt loam
[10] = ratio 5:1, [H2O2:FeSO4] = [1.0 g:0.2 g], 24 h, Quakertown silt loam
[11] = ratio 10:1 (footnote d), [H2O2:FeSO4] = [0.2 g:0.2 g] [sic], 24 h, Quakertown silt loam
[12] = ratio 10:1 (footnote e), [H2O2:FeSO4] = [1.0 g:0.1 g], 24 h, Quakertown silt loam
[13] = ratio head 1.1, [H2O2:FeSO4] = [0.2 g:0.2 g], 24 h, Quakertown silt loam
[14] = mFR + gallic acid, pH ca. 6.0-6.5

SMILES	Vapor Pressure [1]	Solubility in water [2]	% remaining in soil [3, 7]	% remaining in soil [3, 8]	% remaining in soil [3, 9]	% remaining in soil [3, 10]	% reduced / degraded by Fenton reaction [3]	% remaining in soil [3, 11]	% remaining in soil [3, 12]	% remaining in soil [3, 13]	Log Kow [4]	% remaining in soil ([5]; FR + CaCO3, pH ca. 6.0-6.5)	% remaining in soil ([5]; mFR + catechol, pH ca. 6.0-6.5)	% remaining in soil [5, 14]	% remaining in soil [6]
c1ccc2ccccc2c1 [Naphthalene, naphthalene]	4.9 × 10^−2	32 µg/mL (≈ 250 µM)													
c1ccc2c(c1)ccc1c3ccccc3ccc21 [Chrysene, chrysene]	6.3 × 10^−7	0.006 µg/mL (≈ 0.0263 µM)	72.6a %	88.1b %	77.0ab %	87.0b %	~12%	88.1b %	98.2c %	100a %	5.61	100a %	100a %	91.1b %	50.8b %
c1ccc2c(c1)ccc1ccccc12 [Phenanthrene, phenanthrene]	6.8 × 10^−4	1.0 µg/mL (≈ 5.61 µM)									4.46				16.8a %
c1ccc2c(c1)Cc1ccccc1-2 [Fluorene, fluorene]	1.3 × 10^−2										4.18				10.3a %
c1ccc2cc3ccccc3cc2c1 [Anthracene, anthracene]	1.9 × 10^−4	0.07 µg/mL (≈ 0.393 µM)	76.3b %	61.9c %	92.7a %	75.9b %	about 40%	61.9c %	79.3b %	100a %	4.45	78.1a %	70.8ab %	66.8b %	
c1cc2ccc3cccc4ccc(c1)c2c34 [Pyrene, pyrene]	6.8 × 10^−7		16.3b %	15.5c %	88.3a %	51.0b %		15.5c %	26.3d %	95.4a %	5.32	77.1a %	58.3b %	58.9b %	53.4a %
c1ccc2c(c1)cc1ccc3cccc4ccc2c1c34 [Benzo(a)pyrene, benzo(a)pyrene]			10.5b %	3.3c %	73.2a %	35.3b %		3.3% and 3.3c %	60.9d %	84.8a %		73.1a %	54.8b %	49.6b %	
